Patent US20090163521A1, “Novel Pyrazolopyrimidinone Derivatives” (ORCHID RESEARCH LABORATORIES LIMITED, priority 2005, published 2009)

Assays:
TNF-α [1] = assay: In vitro measurement of TNF-α in LPS-stimulated human PBMC; assay type: cell-based; conditions: LPS 1 μg/ml, 18 h
Description: This assay determines the effect of test compounds on the production of TNF α in human Peripheral Blood Mononuclear Cells (PBMC). Compounds were tested for their ability to inhibit the activity of TNF α in human PBMC. PBMC were isolated from blood (from healthy volunteers) using BD Vacutainer CPT™ (Cell preparation tube, BD Bio Science) and suspended in RPMI medium (Physiol. Res. 52: 593-598, 2003). The test compounds were pre-incubated with PBMC (0.5 million/incubation well) for 15 minutes at 37° C. and then stimulated with Lipopolysaccharide (Escherichia coli: B4; 1 μg/ml) for 18 h at 37° C. in 5% CO2. The levels of TNFα in cell culture medium were estimated using enzyme linked Immunosorbent assay performed in a 96 well format as per the procedure of the manufacturer (Cayman Chemical, Ann Arbor, USA).

TNF-α [2] = assay: LPS induced sepsis for measurement of TNF-α inhibition in mice; assay type: in vivo; conditions: at 50 mg/kg, oral, serum 90 min after LPS
Description: The LPS induced sepsis model in mice was performed as described by Les sekut et al (J Lab Clin Med 1994; 124:813-20). Female Swiss albino mice were selected and the body weights were equivalent within each group. The mice were fasted for 20 hours with free access to water. The mice were dosed orally with the test compound suspended in vehicle containing 0.5% Tween 80 in 0.25% Carboxy-methylcellulose sodium salt. The control mice were administered the vehicle alone. After 30 min of oral dosing, mice were injected with 500 μg of Lipopolysaccharide (Escherichia coli, LPS: B4 from Sigma) in phosphate buffer saline solution into the intraperitoneal cavity of the mice. After 90 min of LPS administration mice were bled via retro-orbital sinus puncture. Blood samples were stored overnight at 4° C. Serum samples were collected by centrifuging the samples at 400 rpm for 15 min at 4° C. Immediately the serum samples were analysed for TNFα levels using commercially available mouse TNF-α ELISA kit (Amersham Biosciences) and assay was performed by the manufacturer instruction.

With CSc1ccc(-c2nc3[nH]nc(N)c3c(=O)n2-c2ccc(C)c(C)c2)cc1 [Example 2, 3-amino-5-(3,4-dimethylphenyl)-6-[4-(methylthio)phenyl]-1,5-dihydro-4H-pyrazolo[3,4-d]pyrimidin-4-one] as the compound, how does the inhibition at 10 µM (TNF-α [1]) read?
Its inhibition at 10 µM is 53.4%.

And the “TNF-α Inhibition (%)” value (TNF-α [2])?
The value was 34.29 (at 50 mg/kg) %.
